Columns and labels:
[1] = tested on: Danio rerio embryo; conditions: exposure time: 4 dpf
Description: (§1)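 Zebrafish embryos (UFZ-OBI strain) were exposed from 2 hpf for 48 h (2 dpf) or 96 h (4 dpf) at 28 °C; spontaneous tail coiling was scored at 25 hpf. Morphological features from automated image analysis (FishInspector), heart rate and locomotor response were fitted with drc models. Quantal endpoints were dichotomised at 2.5 SD from controls and fitted with a log-logistic model; heart rate, pigmentation and STC were normalised to the replicate control mean. Betamethasone was tested as betamethasone dipropionate, diflorasone as diflorasone diacetate.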

[2] = tested on: Danio rerio embryo
Description: as §1

[3] = tested on: Danio rerio embryo; experiment: EC50 Head size_Decrease; conditions: exposure time: 4 dpf
Description: as §1

[4] = tested on: Danio rerio embryo; experiment: EC50 Body length_Decrease; conditions: exposure time: 2 dpf
Description: as §1

[5] = tested on: Danio rerio embryo; experiment: EC50 Bladder size_Decrease; conditions: exposure time: 4 dpf
Description: as §1

[6] = tested on: Danio rerio embryo; experiment: EC10 Lack of SB; higher = less potent; conditions: exposure time: 4 dpf
Description: as §1

[7] = tested on: Danio rerio embryo; experiment: EC20 Lack of SB; higher = less potent; conditions: exposure time: 4 dpf
Description: as §1

[8] = tested on: Danio rerio embryo; experiment: EC20 Any effect; higher = less potent
Description: as §1

[9] = tested on: Danio rerio embryo; experiment: EC10 Any effect; higher = less potent
Description: as §1

[10] = tested on: Danio rerio embryo; experiment: EC20 Head size_Decrease; higher = less potent; conditions: exposure time: 4 dpf
Description: as §1

[11] = tested on: Danio rerio embryo; experiment: EC10 Head size_Decrease; higher = less potent; conditions: exposure time: 4 dpf
Description: as §1

[12] = tested on: Danio rerio embryo; experiment: EC20 Body length_Decrease; higher = less potent; conditions: exposure time: 2 dpf
Description: as §1

[13] = tested on: Danio rerio embryo; experiment: EC10 Body length_Decrease; higher = less potent; conditions: exposure time: 2 dpf
Description: as §1

[14] = tested on: Danio rerio embryo; experiment: EC10 Bladder size_Decrease; higher = less potent; conditions: exposure time: 4 dpf
Description: as §1

[15] = tested on: Danio rerio embryo; experiment: EC20 Bladder size_Decrease; higher = less potent; conditions: exposure time: 4 dpf
Description: as §1

[16] = tested on: Danio rerio embryo; experiment: spontaneous tail coiling frequency (coils/min/embryo); higher = more spontaneous movement; conditions: 25 hpf
Description: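 Spontaneous tail coilings of zebrafish embryos exposed from 2 hpf were recorded at 24-25 hpf in 1-min videos and detected by a KNIME workflow from grey-value variance. Betamethasone was tested as the dipropionate, diflorasone as the diacetate.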

COc1cccc2c1C(=O)c1c(O)c3c(c(O)c1C2=O)C[C@@](O)(C(C)=O)C[C@@H]3O[C@H]1C[C@H](N)[C@H](O)[C@H](C)O1 [Daunorubicin]
Conditions	EC10 Bladder size Decrease [µM]	EC10 Body length Decrease [µM]	EC10 Head size Decrease [µM]	EC10 Lack of SB [µM]	EC20 Bladder size Decrease [µM]	EC20 Body length Decrease [µM]	EC20 Head size Decrease [µM]	EC20 Lack of SB [µM]	EC50 Bladder size Decrease [µM]	EC50 Body length Decrease [µM]	EC50 Head size Decrease [µM]	EC50 Lack of SB [µM]
[1]	–	–	–	–	–	–	–	–	–	–	–	72.3
[3]	–	–	–	–	–	–	–	–	–	–	43.4	–
[4]	–	–	–	–	–	–	–	–	–	106	–	–
[5]	–	–	–	–	–	–	–	–	46.8	–	–	–
[6]	–	–	–	13.3	–	–	–	–	–	–	–	–
[7]	–	–	–	–	–	–	–	24.9	–	–	–	–
[10]	–	–	–	–	–	–	19.7	–	–	–	–	–
[11]	–	–	12.4	–	–	–	–	–	–	–	–	–
[12]	–	–	–	–	–	80.4	–	–	–	–	–	–
[13]	–	68.5	–	–	–	–	–	–	–	–	–	–
[14]	9.82	–	–	–	–	–	–	–	–	–	–	–
[15]	–	–	–	–	17.5	–	–	–	–	–	–	–

Conditions	EC10 Any effect [µM]	EC20 Any effect [µM]	EC50 Any effect [µM]	spontaneous tail coiling frequency
[2], exposure time: 2 dpf	–	–	185	–
[2], exposure time: 4 dpf	–	–	90.6	–
[8], exposure time: 2 dpf	–	68.6	–	–
[8], exposure time: 4 dpf	–	87.6	–	–
[9], exposure time: 2 dpf	38.3	–	–	–
[9], exposure time: 4 dpf	85.9	–	–	–
[16], 17.5 µM	–	–	–	2.64
[16], 23.3 µM	–	–	–	1.8
[16], 26.3 µM	–	–	–	3.47
[16], 35 µM	–	–	–	2.25
[16], 39.4 µM	–	–	–	2.69
[16], 52.5 µM	–	–	–	2.33
[16], 59.1 µM	–	–	–	2.7
[16], 78.8 µM	–	–	–	2.14
[16], 88.7 µM	–	–	–	2.85

Reference: the supplement of paper PMC9013687
